Values of other authors as cited in patent US11230553B2, “Nannocystin process and products” (THE RESEARCH FOUNDATION FOR THE STATE UNIVERSITY OF NEW YORK, priority 2016, dated 2022).

How the values were obtained:
[1] = test system: HCT116; conditions: HCT116 cancer cell line; read-out: IC50 against HCT116
[2] = test system: PC3; conditions: PC3 cancer cell line; read-out: IC50 against PC3
[3] = test system: HL60; conditions: HL60 cancer cell line; read-out: IC50 against HL60
[4] = test system: 472 cancer cell lines

For `CC[C@H](C)[C@H]1C(=O)N[C@H](Cc2cc(Cl)c(O)c(Cl)c2)C(=O)N[C@@H](C(C)(C)O)C(=O)O[C@H](c2ccccc2)[C@H](C)/C=C/C=C(\C)[C@H](OC)C[C@@H]2O[C@@]2(C)C(=O)N1C` [nannocystin A, (1), (1R,4S,7R,10S,13S,14R,15E,17E,19R,21S)-4-((S)-sec-butyl)-7-(3,5-dichloro-4-hydroxybenzyl)-10-(2-hydroxypropan-2-yl)-19-methoxy-1,3,14,18-tetramethyl-13-phenyl-12,22-dioxa-3,6,9-triazabicyclo[19.1.0]docosa-15,17-diene-2,5,8,11-tetraone], the IC50 [1] is listed as 1.2 nM, the IC50 [2] is listed as 1 nM and the IC50 [3] is listed as 12 nM. The “anti-proliferative properties against 472 cancer cell lines” value [4] was “nanomolar concentration range”.
